Where no end group is shown, it is not given here.
How the values were obtained:
FGFR1B = FGFR1B (Homo sapiens, UniProt P11362); assay: SPR detection of interaction with FGFR1B in presence of bFGF; assay type: binding
Protocol: Amino acid sequence of P9 degraded short peptide P48 was analyzed using Amber11 program. An initial structure of the P9 and P48 peptide chains was constructed using a sequence command in a Tleap module of the Amber11 program. Hydrogen atoms were added using the Tleap module of the Amber11 program, a […] TIP3P solvent box was added at a distance of 10 Å from the peptide chain, and counter ions were added to the two systems to keep the system electrically neutral. The system was subjected to 20-ns NPT system simulation to obtain an optimal spatial structure. […] The experimental procedure was as follows: the plasma was centrifuged and the supernatant was removed, and 60 μl of peptide was added to incubate for different lengths of time (P9 was incubated for 5, 10, 15, 20, 25, 30 and 45 min; P48 was incubated for 1, 2, 3, 4, 5, 10 and 12 h), and the incubation was terminated with 200 μl of 5% glacial acetic acid. Solid phase extraction: activation was conducted with 1.5 ml of methanol, an obtained product was washed with 1.5 ml of H2O, 400 μl of a sample was loaded, washed with 1 ml of H2O, and elution was conducted with 2 ml of 30% acetonitrile to collect samples, and the samples were freeze-dried and subjected to liquid chromatography analysis. […] The last 1 ns of trajectory obtained by molecular dynamics simulation of the system was selected to calculate the binding free energy, the molecules of the solvent of water and counter ion were deleted, and conformation was recorded every 10 ps to obtain a total of 101 structures. The binding free energy between FGF2 and FGFR1 were calculated by a molecular mechanics-generalized born surface area (MM-GBSA) method. The binding free energy and energy decomposition of amino acid residues were calculated using an MMPBA.py script provided by the Amber11. […] After bFGF and FGFR1 flew into the sensor chip, P48 (50 μM, 100 μM, 200 μM, 300 μM and 400 μM) was injected into a sensor surface, and the obtained data was analyzed using BIAevaluation software.

FGFR1C = biological target: T1, FGFR1C (Homo sapiens, UniProt P11362); assay: SPR detection of interaction with FGFR1C; assay type: binding
T1 sequence (P11362 22-376 limits assumed): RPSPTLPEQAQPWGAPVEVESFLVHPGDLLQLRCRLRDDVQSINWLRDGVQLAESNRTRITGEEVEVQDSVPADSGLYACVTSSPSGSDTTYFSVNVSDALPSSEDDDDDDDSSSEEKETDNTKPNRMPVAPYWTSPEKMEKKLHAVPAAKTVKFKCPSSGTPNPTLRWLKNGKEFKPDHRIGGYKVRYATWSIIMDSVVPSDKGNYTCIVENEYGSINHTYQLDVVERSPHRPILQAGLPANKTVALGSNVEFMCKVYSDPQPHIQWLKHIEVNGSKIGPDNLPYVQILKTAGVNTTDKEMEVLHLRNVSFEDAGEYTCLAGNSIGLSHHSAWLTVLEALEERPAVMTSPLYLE
Protocol: Amino acid sequence of P9 degraded short peptide P48 was analyzed using Amber11 program. An initial structure of the P9 and P48 peptide chains was constructed using a sequence command in a Tleap module of the Amber11 program. Hydrogen atoms were added using the Tleap module of the Amber11 program, a […] TIP3P solvent box was added at a distance of 10 Å from the peptide chain, and counter ions were added to the two systems to keep the system electrically neutral. The system was subjected to 20-ns NPT system simulation to obtain an optimal spatial structure. […] The last 1 ns of trajectory obtained by molecular dynamics simulation of the system was selected to calculate the binding free energy, the molecules of the solvent of water and counter ion were deleted, and conformation was recorded every 10 ps to obtain a total of 101 structures. The binding free energy between FGF2 and FGFR1 were calculated by a molecular mechanics-generalized born surface area (MM-GBSA) method. The binding free energy and energy decomposition of amino acid residues were calculated using an MMPBA.py script provided by the Amber11. […] After bFGF and FGFR1 flew into the sensor chip, P48 (50 μM, 100 μM, 200 μM, 300 μM and 400 μM) was injected into a sensor surface, and the obtained data was analyzed using BIAevaluation software. […]

FGFR1 = FGFR1 (Homo sapiens, UniProt P11362); assay: Western blot of bFGF-induced FGFR1 activation in HEK-293 cells; assay type: cell-based; design: endogenous in cells; host or cells: HEK-293; details: P48 pretreatment 10 min, bFGF 15 min
Protocol: Human embryonic kidney cells HEK-293, fibroblasts MEF-WT and Balb/c 3T3 were inoculated into 6-well plates, respectively. After growing adherently overnight, the cells were pretreated with P48 for 10 min or with AZD4547/PD173074/SSR for 2 h, and incubated with bFGF for 15 min. […] The experimental procedure was as follows: MEF-WT and MEFKO (FGFR1-FGFR2-FRS2a) cells (1×10^6 cells/ml) were inoculated in a 35 mm petri dish. After being adhered to the wall of petri dish overnight, the cells were washed with PBS; FITC-conjugated P48 (1, 10, 100 and 1000 nM) was added, and the cells were incubated in an incubator for 30 min. The cells were immobilized with 1% paraformaldehyde in the dark and washed with PBS. An expression level of the FITC was measured at a fluorescence channel 1 (FL-1) (530 nm), with an excitation wavelength of 488 nm. Data analysis was conducted using CellQuest software (Becton Dickinson).

Sequence of FGFR1B (P11362 22-822 isoform P11362-19 limits assumed): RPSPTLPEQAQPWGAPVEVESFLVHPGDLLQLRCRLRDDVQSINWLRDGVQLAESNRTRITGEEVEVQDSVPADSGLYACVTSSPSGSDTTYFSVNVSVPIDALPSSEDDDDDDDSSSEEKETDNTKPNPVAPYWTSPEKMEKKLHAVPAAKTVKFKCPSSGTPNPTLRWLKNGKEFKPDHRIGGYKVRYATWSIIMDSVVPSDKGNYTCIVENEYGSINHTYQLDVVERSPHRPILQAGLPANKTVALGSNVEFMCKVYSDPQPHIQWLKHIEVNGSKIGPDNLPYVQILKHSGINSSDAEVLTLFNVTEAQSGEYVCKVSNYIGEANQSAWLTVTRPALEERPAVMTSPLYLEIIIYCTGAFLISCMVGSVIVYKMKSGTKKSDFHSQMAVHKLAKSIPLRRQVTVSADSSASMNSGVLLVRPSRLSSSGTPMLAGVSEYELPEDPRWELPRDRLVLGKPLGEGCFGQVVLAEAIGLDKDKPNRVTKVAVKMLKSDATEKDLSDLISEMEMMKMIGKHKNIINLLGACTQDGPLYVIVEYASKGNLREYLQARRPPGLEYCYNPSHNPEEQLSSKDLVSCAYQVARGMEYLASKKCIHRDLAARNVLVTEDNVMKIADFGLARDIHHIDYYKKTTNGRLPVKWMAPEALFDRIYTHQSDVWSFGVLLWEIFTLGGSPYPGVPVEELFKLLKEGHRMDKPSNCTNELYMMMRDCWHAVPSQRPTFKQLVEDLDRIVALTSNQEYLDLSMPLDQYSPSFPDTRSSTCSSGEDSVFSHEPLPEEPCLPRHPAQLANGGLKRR
Sequence of FGFR1 (P11362 22-822): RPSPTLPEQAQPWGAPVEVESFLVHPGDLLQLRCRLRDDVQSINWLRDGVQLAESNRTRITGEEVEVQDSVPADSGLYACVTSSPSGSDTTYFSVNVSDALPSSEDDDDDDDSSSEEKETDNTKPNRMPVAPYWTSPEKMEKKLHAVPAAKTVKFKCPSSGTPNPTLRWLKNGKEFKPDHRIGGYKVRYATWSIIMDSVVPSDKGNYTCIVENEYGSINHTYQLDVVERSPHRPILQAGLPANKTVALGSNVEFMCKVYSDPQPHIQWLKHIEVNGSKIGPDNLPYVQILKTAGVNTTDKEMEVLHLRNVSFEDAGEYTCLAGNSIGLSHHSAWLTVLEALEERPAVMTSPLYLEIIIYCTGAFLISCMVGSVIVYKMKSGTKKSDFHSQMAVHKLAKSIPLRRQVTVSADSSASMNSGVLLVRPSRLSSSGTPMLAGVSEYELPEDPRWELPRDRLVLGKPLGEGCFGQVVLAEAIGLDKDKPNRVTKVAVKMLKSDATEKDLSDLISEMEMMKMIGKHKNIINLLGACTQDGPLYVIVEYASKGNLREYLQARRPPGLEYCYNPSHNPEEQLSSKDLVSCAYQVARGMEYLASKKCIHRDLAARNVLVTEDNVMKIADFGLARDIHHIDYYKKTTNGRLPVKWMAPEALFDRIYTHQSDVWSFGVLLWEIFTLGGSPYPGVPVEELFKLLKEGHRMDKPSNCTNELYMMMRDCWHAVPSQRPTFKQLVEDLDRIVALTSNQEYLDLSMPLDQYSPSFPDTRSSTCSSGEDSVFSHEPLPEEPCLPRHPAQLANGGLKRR

- binding degree FGFR1 versus FGFR2 and FGFR3 (FGFR1B; comparison of FIG. 1F and FIG. 2): stronger than that with FGFR2 and FGFR3
- binding to FGFR1C (FGFR1C): can be bound
- rank of binding degree among FGFRs (FGFR1C): FGFR1C has the strongest binding degree
Substance: SPPRYPGGGS-NH2 [P48, Ser-Pro-Pro-Arg-Tyr-Pro-Gly-Gly-Gly-Ser-NH2]
- competitive binding to FGFR1 with bFGF (FGFR1B; P48 50-400 μM): can competitively bind to FGFR1 with basic fibroblast growth factor (bFGF)
- concentration dependence of binding force (FGFR1B; P48 50-400 μM): a higher concentration leads to a stronger binding force
- inhibition of FGFR1 activation induced by bFGF (FGFR1): can inhibit activation of FGFR1 induced by bFGF in a concentration-dependent manner
